For assay [1], the target named is T1, human α2-GABAA receptor (α2-GABAAR-HEK293 cells) (Homo sapiens, UniProt P18507+P47869).
T1 construct: expressed in transfected cells
Put plainly: Whole-cell patch-clamp electrophysiology, positive allosteric modulatory activity on α2-GABAA receptor. It is filed as cell-based. To be noted: read-out: α2-GABAA positive allosteric modulatory activity. The text has this:
(§1) α subunit, β subunit, and γ subunit are essential for the formation of a complete and functional GABAA receptor. In this example of the present disclosure, HEK293 cells stably expressing the human α1-GABAA receptor (α1-GABAAR) and α2-GABAA receptor (α2-GABAAR) were constructed and separately selected using the lipofection method (Felgner, P. L., et al. Proceedings of the National Academy of Sciences, 1987, 84: 7413-7417). The α1-GABAAR-HEK293 cell model simultaneously expressed the α1 subunit (for protein sequence, see GenBank accession No.: NM_000806.5), the […] (for protein sequence, see GenBank accession No.: NM_000814.5), and the […] (for protein sequence, see GenBank accession No.: NM_000816.3). The α2-GABAAR-HEK293 cell model simultaneously expressed the α2 subunit (for protein sequence, see GenBank accession No.: NM_000807.4), the β3 subunit (for protein sequence, see GenBank accession No.: NM_000814.5), and the γ2 subunit (for protein sequence, see GenBank accession No.: NM_000816.3).
(§2) The above cell lines were subcultured. The α2-GABAAR-HEK293 cells were expanded for testing the affinity of compounds to the benzodiazepine (BZD) site of the GABAA receptor. During the passage process, some of the α1-GABAAR-HEK293 cells and α2-GABAAR-HEK293 cells were suspended and plated on a slide pre-treated with Poly-D-Lysine for electrophysiological testing (method referenced from patent CN107344936A, paragraph 0586).
(§3) The positive regulatory activity of the test drugs on the α1-GABAA receptor and the α2-GABAA receptor was detected by the electrophysiological method. The specific method was as follows:
(§4) Compound concentration setting: The final concentration of the compounds used for screening was 100 nM. For cell lines expressing the α1-GABAA receptor, the concentration of GABA was 0.05 to 0.07 μM (approximately EC2-4). For cell lines expressing the α2-GABAA receptor, the concentration of GABA was 0.10 to 0.11 μM (approximately EC7-8). Electrophysiological testing was performed using the whole-cell patch-clamp technique, which can refer to the method reported in the literature (Nickolls, S. A., et al. British Journal of Pharmacology, 2018, 175: 708-725). The composition of the extracellular solution (ECS) for electrophysiology was as follows: 150 mM NaCl, 5 mM KCl, 2.5 mM CaCl2, 1 mM MgCl2, 10 mM HEPES, and 10 mM glucose (pH 7.4). The formulation of the intracellular solution (ICS) for electrophysiology was as follows: 140 mM CsCl, 11 mM EGTA, 10 mM HEPES, 2 mM CaCl2, 1 mM MgCl2, 4 mM MgATP, and 2 mM TEA (pH 7.3). GABA (γ-aminobutyric acid) powder was prepared into a mother liquor with pure water, which was then diluted in ECS. The compound was first prepared into a 4 mM mother liquor with dimethyl sulfoxide, which was then gradually diluted in the corresponding concentration of GABA-ECS. The solutions were freshly prepared prior to electrophysiological testing.
(§5) Electrophysiological signal acquisition was performed using an EPC 10 amplifier and PatchMaster software (HEKA) or an Axon 700B amplifier and Clampex software (AXON). The recording electrode was made through a drawing process using borosilicate glass, with an electrode resistance of 4 to 6 MΩ. Extracellular administration was performed using the ALA-VC-8PG™ system. A single, independently growing cell was selected. After the glass electrode formed a good seal with the cell, the membrane was ruptured to form the whole-cell configuration. The cell membrane potential was clamped at −60 mV and recorded in Gap-free mode. During the test, the extracellular solution was first applied extracellularly for approximately 20 seconds. After the baseline (Iprebaseline) stabilized, the extracellular solution was switched to GABA-ECS. At this point, the current induced by GABA (Igaba) could be detected. After approximately 10 to 20 seconds, when the current stabilized, the extracellular solution was switched to a mixture of the compound and GABA-ECS. […]

Assay [2] addresses T2, human α1-GABAA receptor (α1-GABAAR-HEK293 cells) (Homo sapiens, UniProt P14867+P18507).
T2 construct: expressed in transfected cells
Put plainly: Whole-cell patch-clamp electrophysiology, positive allosteric modulatory activity on α1-GABAA receptor. It is filed as cell-based. The note with it: read-out: α1-GABAA positive allosteric modulatory activity.
From the text: as §1, §2, §3, §4, §5

The target of assay [3] is T3, human α2-GABAA receptor (BZD site, membrane protein of HEK293 cells) (Homo sapiens, UniProt P18507+P47869).
T3 construct: expressed in transfected cells
The assay is described as follows: Radioligand competitive binding assay (3H-flunitrazepam) at the BZD site of the α2-GABAA receptor. The note with it: competition with 1 nM 3H-flunitrazepam; Ki calculated from IC50; read-out: α2 Ki.
From the text: as §1, §2
The affinity of the compounds for the α2-GABAA receptor was determined by competing for the binding of ^3H-flunitrazepam (isotope ^3H-labelled flunitrazepam) to the BZD site on the membrane protein of HEK293 cells stably expressing the human α2-GABAAR.
Membrane preparation: Cells were suspended in 50 mM Tris-HCl buffer (pH=7.4), homogenized 10 times for 20 seconds with a homogenizer on ice, and centrifuged at 1000 g for 10 minutes at 4° C. The supernatant was taken, and the above steps were repeated. The supernatant was centrifuged at 4° C. (33800 g; Thermo, rotor: A27-8×50) for 60 minutes. The precipitate was resuspended in Tris buffer (50 mM Tris-HCl, 10 mM MgCl2, 0.5 mM EDTA, and 10% glycerol). The protein content was determined (BCA (bicinchoninic acid) protein quantification assay based on copper ion reduction, with a BCA kit purchased from Pierce (Annoron (Beijing) Biotechnology Co., Ltd.)), and 1 mL aliquots were prepared and stored at −80° C.
Radioligand competitive binding assay: This assay was performed in a 200 μL system (96-well plate) containing 100 μL of cell membrane. The concentration of ^3H-flunitrazepam was 1 nM, and the concentrations of the test compounds were in the range of […]. Flumazenil was used as a control. 1 μL of 2 mM flumazenil (final […]) was added to each low signal control (low control, LC) well, and 1 μL of dimethyl sulfoxide was added to each high signal control (high control, HC) well. The final concentration of target membrane protein was […]. All sample stock solutions of test compounds were 10 mM dimethyl sulfoxide solutions. All the samples were diluted to a concentration of 0.2 mM with dimethyl sulfoxide, and then subjected to a 4-fold serial dilution for a total of 8 working concentration gradients. The 96-well plate was sealed with a sealing membrane and then incubated on a shaker at room temperature for 1 hour. Meanwhile, a GF/C filter plate was soaked in plate soaking buffer (0.3% PEI (polyethyleneimine, purchased from Sigma-Aldrich, model: P314), stored at 4° C.) for at least 0.5 hours. After the binding incubation was completed, the cells were harvested onto the GF/C filter plate using a cell harvester and washed four times with plate washing buffer (50 mM Tris-HCl, pH 7.4, stored at 4° C.). After drying in an oven at 50° C. for 1 hour, the dried GF/C filter plate was bottom-sealed. The residual radioactivity on the filter membrane was detected by liquid scintillation counting.

Take `CCn1cnc2c(-c3ccc(F)c(-c4cc5oc(=O)n(CC6CC6)c5cc4OC)c3)cnnc21` [Example 34, 3-(Cyclopropylmethyl)-6-(5-(7-ethyl-7H-imidazo[4,5-c]pyridazin-4-yl)-2-fluorophenyl)-5-methoxybenzo[d]oxazol-2(3H)-one]: the activation at 0.1 µM in assay [1] stood at 124%; in assay [2] it was 70%. For the same compound, the Ki (usually the dissociation constant of the complex between target and ligand, obtained from inhibition or displacement) in assay [3] is 5.71 nM.
For `COc1cc2c(cc1-c1cc(-c3cnnc4c3ncn4C(C)C)ccc1F)oc(=O)n2C` [Example 35, 6-(2-Fluoro-5-(7-isopropyl-7H-imidazo[4,5-c]pyridazin-4-yl)phenyl)-5-methoxy-3-methylbenzo[d]oxazol-2(3H)-one] the same measures were 134%, 80% and 7.73 nM.
For `COc1cc2nn(C)cc2cc1-c1cc(-c2cnnc3c2ncn3C(C)C)ccc1F` [Example 49, 4-(4-Fluoro-3-(6-methoxy-2-methyl-2H-indazol-5-yl)phenyl)-7-isopropyl-7H-imidazo[4,5-c]pyridazine] the same measures were 94%, 58% and 9.16 nM.
For `CCn1cnc2c(-c3ccc(F)c(-c4cc5oc(=O)n(C6CC6)c5cc4OC)c3)cnnc21` [Example 51, 3-Cyclopropyl-6-(5-(7-ethyl-7H-imidazo[4,5-c]pyridazin-4-yl)-2-fluorophenyl)-5-methoxybenzo[d]oxazol-2(3H)-one] the same measures were 90%, 14% and 3.44 nM.
For `CCn1cnc2c(-c3ccc(F)c(-c4cc5sc(=O)n(C)c5cc4OC)c3)cnnc21` [Example 53, 6-(5-(7-Ethyl-7H-imidazo[4,5-c]pyridazin-4-yl)-2-fluorophenyl)-5-methoxy-3-methylbenzo[d]thiazol-2(3H)-one], the activation at 0.1 µM was 94% in assay [1] and 21% in assay [2]. In addition, the inhibition constant Ki in assay [3] is 3.78 nM.
For `CCn1cnc2c(-c3ccc(F)c(-c4cc5ccc(=O)n(C)c5cc4OC)c3)cnnc21` [Example 55, 6-(5-(7-Ethyl-7H-imidazo[4,5-c]pyridazin-4-yl)-2-fluorophenyl)-7-methoxy-1-methylquinolin-2(1H)-one] the same measures were 81%, 21% and 2.43 nM.
For `CCn1cnc2c(-c3ccc(F)c(-c4ccc5c(nnn5C5CC5)c4OC)c3)cnnc21` [Example 70, 4-(3-(1-Cyclopropyl-4-methoxy-1H-benzo[d][1,2,3]triazol-5-yl)-4-fluorophenyl)-7-ethyl-7H-imidazo[4,5-c]pyridazine] the same measures were 90%, -27% and 0.5 nM.
For `CCn1cnc2c(-c3ccc(F)c(-c4cc5cn(C6CCN(C)CC6(F)F)nc5cc4OC)c3)cnnc21` (stereo not drawn) [Example 74, 4-(3-(2-(3,3-Difluoro-1-methylpiperidin-4-yl)-6-methoxy-2H-indazol-5-yl)-4-fluorophenyl)-7-ethyl-7H-imidazo[4,5-c]pyridazine] the same measures were 104%, 9% and 6.99 nM.
With `CCn1cnc2c(-c3ccc(F)c(-c4cc5cn(C6CCN(C)CC6F)nc5cc4OC)c3)cnnc21` (stereo not drawn) [Example 76, 7-Ethyl-4-(4-fluoro-3-(2-(3-fluoro-1-methylpiperidin-4-yl)-6-methoxy-2H-indazol-5-yl)phenyl)-7H-[4,5-c]pyridazine], the figures for the activation at 0.1 µM in assay [1] and in assay [2] were 107% and 61%, respectively. The inhibition constant (Ki) in assay [3] was 2.43 nM.
For `CCn1cnc2c(-c3ccc(F)c(-c4cc5cn(C6CCN(C7COC7)CC6)nc5cc4OC)c3)cnnc21` [Example 77, 7-Ethyl-4-(4-fluoro-3-(6-methoxy-2-(1-(oxetan-3-yl)piperidin-4-yl)-2H-indazol-5-yl)phenyl)-7H-imidazo[4,5-c]pyridazine] the same measures were 104%, 66% and 1.13 nM.
For `CCn1cnc2c(-c3ccc(F)c(-c4cc5cn(-c6nccn6C)nc5cc4OC)c3)cnnc21` [Example 78, 7-Ethyl-4-(4-fluoro-3-(6-methoxy-2-(1-methyl-1H-imidazol-2-yl)-2H-indazol-5-yl)phenyl)-7H-imidazo[4,5-c]pyridazine] the same measures were 110%, 10% and 3.91 nM.
As for `CCn1cnc2c(-c3ccc(F)c(-c4ccc5c(nnn5C)c4OC)c3)cnnc21` [Example 81, 7-Ethyl-4-(4-fluoro-3-(4-methoxy-1-methyl-1H-benzo[d][1,2,3]triazol-5-yl)phenyl)-7H-imidazo[4,5-c]pyridazine], the activation at 0.1 µM is 83% in assay [1] and -25% in assay [2]. The inhibitory constant (Ki) in assay [3] was 2.34 nM.
Turning to `CCn1cnc2c(-c3ccc(F)c(-c4cc5oc(C6CCOCC6)nc5cc4OC)c3)cnnc21` [Example 93, 6-(5-(7-Ethyl-7H-imidazo[4,5-c]pyridazin-4-yl)-2-fluorophenyl)-5-methoxy-2-(tetrahydro-2H-pyran-4-yl)benzo[d]oxazole], the activation at 0.1 µM in assay [1] is 115%; in assay [2], 79%. In assay [3], the Ki was 8.32 nM.

Values taken from patent publication US20260159519A1, “IMIDAZOPYRIDAZINE SUBSTITUTED BENZENE RING DERIVATIVE, PREPARATION METHOD, PHARMACEUTICAL COMPOSITION AND USE” (SHANGHAI SIMR BIOTECHNOLOGY CO., LTD., priority 2022, published 2026).
